# According to US9289429B2, “Compounds and methods for inhibiting phosphate transport” (Ardelyx, Inc., priority 2010, dated 2016):
# Experiments:
# [1] = biological target: T1, rat NaP2b (SLC34A2) (Rattus norvegicus, UniProt Q9JJ09); assay: NaP2b-mediated Pi transport (33P uptake) in transfected HEK293 cells, rat transporter; assay type: cell-based; details: HEK293 cells transfected with rat NaP2b, 33P phosphate uptake, 100 uM KH2PO4; read-out: pIC50 range for rat Nap2b (converted)
# T1 construct: host or cells: HEK293
# T1 sequence (Q9JJ09 1-695): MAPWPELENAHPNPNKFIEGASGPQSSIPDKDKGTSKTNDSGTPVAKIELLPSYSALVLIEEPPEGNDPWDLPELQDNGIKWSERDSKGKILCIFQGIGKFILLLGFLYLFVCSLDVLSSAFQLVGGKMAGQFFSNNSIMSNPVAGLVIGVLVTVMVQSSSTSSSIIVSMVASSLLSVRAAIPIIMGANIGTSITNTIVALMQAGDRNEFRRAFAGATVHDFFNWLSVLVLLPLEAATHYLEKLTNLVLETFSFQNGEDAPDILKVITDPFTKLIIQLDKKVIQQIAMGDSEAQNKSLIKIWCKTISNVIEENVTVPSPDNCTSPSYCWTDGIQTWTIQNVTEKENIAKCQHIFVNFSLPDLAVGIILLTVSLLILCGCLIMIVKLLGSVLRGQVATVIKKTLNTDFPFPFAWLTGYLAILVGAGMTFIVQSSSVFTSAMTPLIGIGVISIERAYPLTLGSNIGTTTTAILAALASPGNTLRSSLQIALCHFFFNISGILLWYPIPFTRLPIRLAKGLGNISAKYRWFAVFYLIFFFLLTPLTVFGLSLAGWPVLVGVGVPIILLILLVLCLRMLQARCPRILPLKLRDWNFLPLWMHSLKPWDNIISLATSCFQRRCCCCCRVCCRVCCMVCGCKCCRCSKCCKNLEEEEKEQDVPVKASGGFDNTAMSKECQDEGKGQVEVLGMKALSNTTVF
# Method: (§1) HEK293 cells were obtained from the American Type Culture collection and propagated per their instructions. Expression clones for rat and human NaP2b (SLC34A2) were obtained from Open Biosystems (Catalog numbers MRN1768-9510282, and MHS1010-99823026, respectively). The sequence of the human protein was mutated to insert a threonine after residue 37, and to introduce a N39D mutation.
# (§2) The rate of phosphate (Pi) uptake into HEK293 cells was measured using a modification of the method described by Mohrmann et al. (Mohrmann, I., Mohrmann, M., Biber, J., and Murer, H. (1986) Am. J. Phys. 250(3 Pt 1):G323-30.) Transfected HEK293 cells were treated with a pharmacological agent to minimize endogenous PiT-mediated phosphate transport activity, such that the only remaining sodium-dependent phosphate transport activity is that which was bestowed by introduction of the NaP2b genes.
# (§3) Cells were seeded into 96-well plates at 25,000 cells/well and cultured overnight. Lipofectamine 2000 (Invitrogen) was used to introduce the NaP2b cDNA, and the cells were allowed to approach confluence during a second overnight incubation. […] Cells were then overlayed with either choline uptake buffer or sodium uptake buffer (14 mM Tris, 137 mM sodium chloride, 5.4 mM KCl, 2.8 mM CaCl2, 1.2 mM MgSO4, 100 uM KH2PO4, PiT-silencing agent, 1 mg/mL Bovine Serum Albumin, pH 7.4) containing 6-9 uCi/mL ^33P orthophosphoric acid (Perkin Elmer) and test compound. Each compound was tested at twelve concentrations ranging from 0.1 nM to 30 uM. Assays were run in duplicate.
# (§4) After incubation for 3-30 minutes at room temperature, assay mixtures were removed, and the cells were washed twice with ice cold stop solution (137 mM sodium chloride, 14 mM Tris, pH 7.4). Cells were lysed by addition of 20 μL 0.1% Tween 80 followed by 100 μL scintillation fluid, and counted using a TopCount (Perkin Elmer).
# (§5) pIC50 (the negative log of the IC50) values of the test compounds were calculated using GraphPad Prism.
# [2] = biological target: T2, human NaP2b (SLC34A2) (Homo sapiens, UniProt O95436); assay: NaP2b-mediated Pi transport (33P uptake) in transfected HEK293 cells, human transporter; assay type: cell-based; details: HEK293 cells transfected with human NaP2b (Thr inserted after residue 37, N39D), 33P phosphate uptake, 100 uM KH2PO4; read-out: pIC50 range for human Nap2b (converted)
# T2 construct: host or cells: HEK293
# T2 sequence (O95436 1-690): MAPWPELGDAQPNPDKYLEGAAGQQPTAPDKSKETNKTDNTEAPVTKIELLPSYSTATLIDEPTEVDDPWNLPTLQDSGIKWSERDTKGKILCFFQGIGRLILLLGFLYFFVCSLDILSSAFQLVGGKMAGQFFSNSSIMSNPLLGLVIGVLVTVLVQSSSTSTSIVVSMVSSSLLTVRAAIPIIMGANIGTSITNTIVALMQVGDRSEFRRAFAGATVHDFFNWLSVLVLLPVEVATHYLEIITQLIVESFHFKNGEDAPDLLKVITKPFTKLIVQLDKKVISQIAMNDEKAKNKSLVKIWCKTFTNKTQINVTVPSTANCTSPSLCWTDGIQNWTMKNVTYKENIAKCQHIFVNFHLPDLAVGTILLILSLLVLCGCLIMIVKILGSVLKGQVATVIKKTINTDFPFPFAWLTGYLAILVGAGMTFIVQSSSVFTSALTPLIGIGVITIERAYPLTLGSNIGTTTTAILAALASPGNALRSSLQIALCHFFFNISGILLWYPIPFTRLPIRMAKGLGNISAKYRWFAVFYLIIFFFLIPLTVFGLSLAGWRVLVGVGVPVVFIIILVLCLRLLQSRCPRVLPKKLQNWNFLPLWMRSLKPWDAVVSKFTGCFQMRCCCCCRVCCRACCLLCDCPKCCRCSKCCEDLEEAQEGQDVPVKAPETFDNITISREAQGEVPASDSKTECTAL
# Method: as §1, §2, §3, §4, §5
# [3] = biological target: T3, NaPi2b (Rattus norvegicus, UniProt Q9JJ09); assay: Competition with phosphate: Pi transport assay repeated at 2.1 vs 0.1 mM phosphate; assay type: cell-based; details: potency for inhibition of NaPi2b at 2.1 vs 0.1 mM phosphate
# T3 construct: host or cells: HEK293
# T3 sequence (Q9JJ09 1-695): T1 sequence (Q9JJ09 1-695)
# Method: To ascertain if an inhibitor was competitive for binding with phosphate, the procedure was repeated, but raising the concentration of the substrate in the assay mixture from 0.1 to 2.1 mM phosphate.
# [4] = Fecal recovery of orally administered compounds; assay type: in vivo; details: rat, oral gavage, feces collected until 48 hr after dosing, same animals as Example 22
# Method: Quantitative determination of test compound level in feces after oral gavage was performed using the same set of animals used to determine test compound concentration in plasma (Example 22). The animals were kept in metabolic cages and feces were collected from the time of dosing until 48 hr after dosing. Upon collection, feces was dried by lyophilization and ground to a visually homogenous powder. Duplicate samples of ground feces from each individual animal were weighed out and extracted using organic solvent. Extracted samples were then diluted into mobile phase and test compound levels were quantitatively determined by LC-MS/MS analysis as described in “Example 22” except that the standard curve was prepared in a feces matrix. Extraction conditions were not optimized for individual compounds, and thus may represent a minimal level of recovery.
# [5] = Stability in simulated gastric and intestinal fluid; assay type: in vitro ADME; details: incubation 6 hr, 1-20 μM
# Method: Test compounds were incubated at 1-20 μM in simulated gastric fluid (SGF; standard USP solution with 3 mg/mL pepsin) or simulated intestinal fluid (SIF; standard USP solution with 3 mg/mL pancreatin) for 3 hr or 6 hr. HPLC-UV or HPLC-MS were used to determine test compound levels using peak area %. Results (Table 5) were reported as the percentage of test compound remaining after incubation in a given condition relative to test compound present at t=0 in the same condition.
IC50 [1] [µM],SMILES,also measured
1 to 7.94,"O=C(O)c1cccc(SCc2cccc(C(=O)Nc3ccc(N4CCCCC4)cc3C(=O)Nc3cnc(-c4ccccc4)nc3)c2)c1 [Example 3, 3-((3-((2-((2-Phenylpyrimidin-5-yl)carbamoyl)-4-(piperidin-1-yl)phenyl)carbamoyl)benzyl)thio)benzoic acid]",
10 to 31.6,"O=C(NCCOCCO)c1cccc(C(=O)Nc2ccc(N3CCCCC3)cc2C(=O)Nc2cnc(-c3cccc(C(F)(F)F)c3)cn2)c1 [Example 6, N1-(2-(2-Hydroxyethoxy)ethyl)-N3-(4-(piperidin-1-yl)-2-((5-(3-(trifluoromethyl)phenyl)pyrazin-2-yl)carbamoyl)phenyl)isophthalamide]",
10 to 31.6,O=C(NCCOCCO)c1cccc(C(=O)Nc2ccc(N3CCCCC3)cc2C(=O)Nc2ncc(-c3cccc(C(F)(F)F)c3)cn2)c1 [Example 8],
1 to 7.94,"Cc1ccc(-c2cnc(NC(=O)c3cc(N4CCCCC4)ccc3NC(=O)c3cccc(CSCCC(=O)O)c3)nc2)cc1C [Example 13, 3-(3-(2-(5-(3,4-dimethylphenyl)pyrimidin-2-ylcarbamoyl)-4-(piperidin-1-yl)phenylcarbamoyl)benzylthio)propanoic acid]",
10 to 31.6,"O=C(O)CCSCc1cccc(C(=O)Nc2ccc(N3CCCCC3)cc2C(=O)Nc2ncc(-c3cccc(C(F)(F)F)c3)cn2)c1 [Example 14, 3-((3-((4-(Piperidin-1-yl)-2-((5-(3-(trifluoromethyl)phenyl)pyrimidin-2-yl)carbamoyl)phenyl)carbamoyl)benzyl)thio)propanoic acid]",
1 to 7.94,"CN(CCOCCOCCOCCC(=O)O)C(=O)c1cccc(C(=O)Nc2ccc(N3CCCCC3)cc2C(=O)Nc2cnc(-c3ccccc3)nc2)c1 [Example 15, 2-Methyl-1-oxo-1-(3-((2-((2-phenylpyrimidin-5-yl)carbamoyl)-4-(piperidin-1-yl)phenyl)carbamoyl)phenyl)-5,8,11-trioxa-2-azatetradecan-14-oic acid]","% remaining, SGF ([5]; simulated gastric fluid with 3 mg/mL pepsin): 97%; % remaining, SIF ([5]; simulated intestinal fluid with 3 mg/mL pancreatin): 98%"
10 to 31.6,"Cc1ccc(-c2cnc(NC(=O)c3cc(N4CCCCC4)ccc3NC(=O)c3cccc(C(=O)NCCOCCO)c3)nc2)cc1C [Example 16, N1-(2-((5-(3,4-Dimethylphenyl)pyrimidin-2-yl)carbamoyl)-4-(piperidin-1-yl)phenyl)-N3-(2-(2-hydroxyethoxy)ethyl)isophthalamide]",
1 to 7.94,"O=C(O)CCOCCOCCOCCNC(=O)Cc1cccc(SCc2cccc(C(=O)Nc3ccc(N4CCCCC4)cc3C(=O)Nc3ncc(-c4ccccc4)cn3)c2)c1 [Example 17, 2-Oxo-1-(3-((3-((2-((5-phenylpyrimidin-2-yl)carbamoyl)-4-(piperidin-1-yl)phenyl)carbamoyl)benzyl)thio)phenyl)-6,9,12-trioxa-3-azapentadecan-15-oic acid]",IC50 [2]: 1 to 7.94 µM

# More lines, now with the values behind:
SMILES,IC50 [1] [µM],also measured
"Cc1ccc(-c2cnc(NC(=O)c3cc(N4CCCCC4)ccc3NC(=O)c3cccc(CSCCC(=O)O)c3)cn2)cc1C [Example 1, 3-((3-((2-((5-(3,4-Dimethylphenyl)pyrazin-2-yl)carbamoyl)-4-(piperidin-1-yl)phenyl)carbamoyl)benzyl)thio)propanoic acid]",1 to 7.94,
"Cc1ccc(-c2cnc(NC(=O)c3cc(N4CCCCC4)ccc3NC(=O)c3cccc(C(=O)NCCOCCO)c3)cn2)cc1C [Example 5, N1-(2-((5-(3,4-Dimethylphenyl)pyrazin-2-yl)carbamoyl)-4-(piperidin-1-yl)phenyl)-N3-(2-(2-hydroxyethoxy)ethyl)isophthalamide]",10 to 31.6,
"CCN(CC)CCN(C)Cc1cccc(C(=O)Nc2ccc(N3CCCCC3)cc2C(=O)Nc2ncc(-c3ccc(C)c(C)c3)cn2)c1 [Example 7, 2-(3-(((2-(Diethylamino)ethyl)(methyl)amino)methyl)benzamido)-N-(5-(3,4-dimethylphenyl)pyrimidin-2-yl)-5-(piperidin-1-yl)benzamide]",1 to 7.94,
"CCN(CC)CCN(C)Cc1cccc(C(=O)Nc2ccc(N3CCCCC3)cc2C(=O)Nc2ncc(-c3cccc(C(F)(F)F)c3)cn2)c1 [Example 9, 2-(3-(((2-(Diethylamino)ethyl)(methyl)amino)methyl)benzamido)-5-(piperidin-1-yl)-N-(5-(3-(trifluoromethyl)phenyl)pyrimidin-2-yl)benzamide]",10 to 31.6,
"CN(CCN1CCOCC1)C(=O)c1cccc(C(=O)Nc2ccc(N3CCCCC3)cc2C(=O)Nc2cnc(-c3cccc(C(F)(F)F)c3)nc2)c1 [Example 10, N1-Methyl-N1-(2-morpholinoethyl)-N3-(4-(piperidin-1-yl)-2-((2-(3-(trifluoromethyl)phenyl)pyrimidin-5-yl)carbamoyl)phenyl)isophthalamide]",< 1,IC50 [2]: < 1 µM; Competitive with respect to Pi? [3]: No
"CN(CCN1CCOCC1)C(=O)c1cccc(C(=O)Nc2ccc(N3CCCCC3)cc2C(=O)Nc2cnc(-c3ccccc3)nc2)c1 [Example 11, N1-Methyl-N1-(2-morpholinoethyl)-N3-(2-((2-phenylpyrimidin-5-yl)carbamoyl)-4-(piperidin-1-yl)phenyl)isophthalamide]",< 1,IC50 [2]: < 1 µM; % recovered in feces [4]: 26%; Competitive with respect to Pi? [3]: No
"O=C(O)P(=O)(O)O [PFA, reference compound]",,Competitive with respect to Pi? [3]: Yes
